Measurements taken from ChEMBL document CHEMBL6114999, “Natural pyrrolo[1,2-a]quinazolinone derivatives: Design, synthesis, characterization, and bio-evaluation as novel antiviral agents” (Eur J Med Chem, 2025).
Activity calls are given as the source filed them. No cut-off for these calls is given here.

Legend:
[1] = Selectivity index, ratio of CC50 for cytotoxicity against HEp-2 cells to EC50 for antiviral activity against CVB3 infected in HEp-2 cells; format: toxicity, cell-based; settings: human, read-out: Ratio CC50/EC50
[2] = test system: Enterovirus; experiment: Antiviral activity against EV71 infected in human RD cells assessed as inhibition of virus-induced cell death at 25 to 100 uM incubated for 48 hrs by MTT assay; format: functional, organism-based; settings: 71, dose 25-100 µM
[3] = test system: Coxsackievirus B3; experiment: Antiviral activity against CVB3 infected in HEp-2 cells assessed as inhibition of virus-induced cell death at 25 to 100 uM incubated for 48 hrs by MTT assay; format: functional, organism-based; settings: dose 25-100 µM
[4] = test system: Enterovirus; experiment: Antiviral activity against EV71 infected in human RD cells assessed as inhibition of virus-induced cell death at 100 uM incubated for 48 hrs by MTT assay relative to control; format: functional, 71; settings: for inhibition at 100 µM: Enterovirus, 71, RD
[5] = test system: Coxsackievirus B3; experiment: Antiviral activity against CVB3 infected in HEp-2 cells assessed as protection from virus-induced cytopathogenicity incubated for 48 hrs by MTT assay; format: functional, organism-based; settings: Enterovirus B, HEp-2, 48 h
[6] = test system: Coxsackievirus B3; experiment: Antiviral activity against CVB3 infected in HEp-2 cells assessed as inhibition of virus-induced cell death at 50 uM incubated for 48 hrs by MTT assay relative to control; format: functional; settings: Enterovirus B
[7] = test system: Enterovirus; experiment: Antiviral activity against EV71 infected in human RD cells assessed as inhibition of virus-induced cell death at 50 uM incubated for 48 hrs by MTT assay relative to control; format: functional; settings: Enterovirus, 71, RD
[8] = Cytotoxicity against human RD cells incubated for 48 hrs by MTT assay; format: toxicity, cell-based
[9] = Cytotoxicity against human HEp-2 cells incubated for 48 hrs by MTT assay; format: toxicity, cell-based
[10] = test system: Coxsackievirus B3; experiment: Antiviral activity against CVB3 infected in HEp-2 cells assessed as inhibition of virus-induced cell death at 25 uM incubated for 48 hrs by MTT assay relative to control; format: functional; settings: Enterovirus B
[11] = test system: Enterovirus; experiment: Antiviral activity against EV71 infected in human RD cells assessed as inhibition of virus-induced cell death at 25 uM incubated for 48 hrs by MTT assay relative to control; format: functional; settings: Enterovirus, 71, RD
[12] = Selectivity index, ratio of CC50 for cytotoxicity against human RD cells to EC50 for antiviral activity against EV71 infected in human RD cells; format: toxicity, cell-based; settings: read-out: Ratio CC50/EC50
[13] = test system: Enterovirus; experiment: Antiviral activity against EV71 infected in human RD cells assessed as protection from virus-induced cytopathogenicity incubated for 48 hrs by MTT assay; format: functional, organism-based; settings: Enterovirus, 71, RD
[14] = test system: Coxsackievirus B3; experiment: Antiviral activity against CVB3 infected in HEp-2 cells assessed as inhibition of virus-induced cell death at 100 uM incubated for 48 hrs by MTT assay relative to control; format: functional; settings: for inhibition at 100 µM: Enterovirus B, HEp-2, 48 h; for inhibition (INH): 48 h, 100 µM

Row | SMILES | selectivity ratio [1] | inhibition [2] | antiviral activity call (active/inactive) [3] | inhibition at 100 µM [4] | EC50 [5] | inhibition at 50 µM [6] | inhibition at 50 µM [7] | CC50 at 48 h [8] | CC50 at 48 h [9] | inhibition at 25 µM [10] | inhibition at 25 µM [11] | selectivity ratio [12] | EC50 [13] | inhibition at 100 µM [14] | Imax [4] | inhibition (INH) [14]
1 | COC(=O)C(Cc1c[nH]c2ccccc12)NC(=O)C12CCC(=O)N1c1ccccc1C(=O)N2 (stereo not drawn) | 4.1 | Active | Active | 89.1% | 43 µM | 45.7% | 74% | 230 µM | 177 µM | 30.8% | 65.8% | 8 | 28.8 µM | 83.1% |  | 
2 | CC(NC(=O)C12CCC(=O)N1c1ccc(Cl)cc1C(=O)N2)c1ccccc1 (stereo not drawn) | 2.3 | Active | Active | 71.7% | 103 µM | 31.5% | 53.3% | 270 µM | 239 µM | 16% | 44.4% | 9.2 | 29.4 µM | 47.9% |  | 
3 | CSCCNC(=O)C12CCC(=O)N1c1ccccc1C(=O)N2C (stereo not drawn) |  |  |  | 7.9% |  | 24.4% | 13.7% | 278 µM | 238 µM | 20.7% | 6.6% |  |  | 32.1% |  | 
4 | CC(NC(=O)C12CCC(=O)N1c1ccccc1C(=O)N2)c1ccccc1 (stereo not drawn) |  | Active |  |  |  |  |  | 256 µM | 205 µM |  |  | 7.9 | 32.4 µM |  |  | 
5 | COC(=O)C(CCSC)NC(=O)C12CCC(=O)N1c1ccccc1C(=O)N2C (stereo not drawn) | 3.6 |  |  | 1.3% |  | 20.2% | 6.2% | 252 µM | 200 µM | 20.8% | 3.2% |  |  | 27.3% |  | 
6 | COc1cc(CNC(=O)C23CCC(=O)N2c2ccccc2C(=O)N3C)ccc1O (stereo not drawn) |  |  | Active |  |  |  |  | 243 µM | 251 µM |  |  |  |  |  |  | 
7 | COC(=O)C(CCSC)NC(=O)C12CCC(=O)N1c1ccccc1C(=O)N2 (stereo not drawn) |  |  |  | 4.8% |  | 21.7% | 5% | 245 µM | 212 µM | 13.3% | 6.1% |  |  | 27.9% |  | 
8 | O=C1NC2(C(=O)NCCc3c[nH]c4ccccc34)CCC(=O)N2c2ccc(Cl)cc21 (stereo not drawn) | 5.4 | Active | Active | 88.4% | 33.5 µM | 77.3% | 66.8% | 140 µM | 180 µM | 38.5% | 57.8% | 8.3 | 16.8 µM | 65.7% |  | 
9 | CSCCNC(=O)C12CCC(=O)N1c1ccc(Cl)cc1C(=O)N2 (stereo not drawn) |  | Active |  | 26.2% |  | 30.1% | 28.8% | 269 µM | 315 µM | 20.3% | 34.9% | 6 | 44.5 µM | 46.7% |  | 
10 | O=C1NC2(C(=O)NCCc3c[nH]c4ccccc34)CCC(=O)N2c2ccccc21 (stereo not drawn) | 2.8 | Active | Active | 67% | 65.8 µM | 44.4% | 73.1% | 208 µM | 185 µM | 28.9% | 64.1% | 11.2 | 18.6 µM | 62.1% |  | 
11 | CN1C(=O)c2ccccc2N2C(=O)CCC12C(=O)NCCS(C)(=O)=O (stereo not drawn) |  |  | Active | 62.3% | 64.5 µM | 46.6% | 56.7% | 251 µM | 205 µM | 38.9% | 33% |  |  | 55.2% |  | 
12 | CS(=O)(=O)CCNC(=O)C12CCC(=O)N1c1ccc(Cl)cc1C(=O)N2 (stereo not drawn) |  |  |  | 22.8% |  | 24.3% | 28% | 243 µM | 202 µM | 12.2% | 33.8% |  |  | 28.5% |  | 
13 | COC(=O)C(Cc1c[nH]c2ccccc12)NC(=O)C12CCC(=O)N1c1ccccc1C(=O)N2C (stereo not drawn) | 3.1 | Active | Active | 78% | 66.2 µM | 40.3% | 65.7% | 282 µM | 202 µM | 27.1% | 55.7% | 9.8 | 28.7 µM | 63.7% |  | 
14 | COC(=O)C(CCSC)NC(=O)C12CCC(=O)N1c1ccc(Cl)cc1C(=O)N2 (stereo not drawn) |  | Active | Active | 58.7% | 60.1 µM | 49.9% | 58.8% | 235 µM | 214 µM | 29.8% | 50.3% | 4.4 | 53.4 µM | 58.8% |  | 
15 | COc1cc(CNC(=O)C23CCC(=O)N2c2ccccc2C(=O)N3)ccc1O (stereo not drawn) | 6.6 |  | Active | 91.3% | 35.8 µM | 56.6% | 85.9% | 264 µM | 238 µM | 42.2% | 64.3% |  |  | 82.4% | 91.33% | 82.4%
16 | CSCCNC(=O)C12CCC(=O)N1c1ccccc1C(=O)N2 (stereo not drawn) |  |  |  | 3.9% |  | 12.3% | 7.3% | 288 µM | 210 µM | 7.9% | 5.7% |  |  | 26.9% |  | 
17 | COc1cc(CNC(=O)C23CCC(=O)N2c2ccc(Cl)cc2C(=O)N3)ccc1O (stereo not drawn) | 10.8 | Active | Active | 97.5% | 17.4 µM | 30.7% | 81.3% | 160 µM | 188 µM | 48.9% | 67.5% | 5.9 | 27.2 µM | 87.3% | 97.48% | 92.3%
18 | CC(NC(=O)C12CCC(=O)N1c1ccccc1C(=O)N2C)c1ccccc1 (stereo not drawn) |  |  |  |  |  |  |  | 234 µM | 223 µM |  |  |  |  |  |  | 
19 | CS(=O)(=O)CCNC(=O)C12CCC(=O)N1c1ccccc1C(=O)N2 (stereo not drawn) | 3.2 |  |  | 1.6% |  | 6.5% | 3.2% | 262 µM | 176 µM | 3.6% | 2% |  |  | 11.9% |  | 
